Laboratory results: US20230414839A1, “COATED MEDICAL PRODUCT” (HEMOTEQ AG, priority 2020, published 2023)
Read-outs that look alike come from different tables or passages of the source. Values belong to the compound of their own block, whether it stands above or below them.

Assays:
[1] = cited from earlier work
[2] = cited from earlier work; remark: listed apart in the source
[3] = preparation and stability of crystal suspensions of microcrystalline rapamycin / everolimus in solutions of different tri-O-acylglycerols (Examples 2, 3); settings: ethyl acetate/heptane solution; standing and temperature elevation
Text: In the first step, solutions of tri-O-acylglycerols were first prepared in a solvent mixture. Subsequently, the solutions were combined with microcrystals of rapamycin and everolimus to investigate which tri-O-acylglycerols could be used to obtain stable crystal suspensions. The composition of the solvents and solvent mixture varied depending on the active agent used. The solutions and solvent mixtures prepared in the example apply to rapamycin (SIR) and everolimus (EVR). For the preparation of the solutions, an ethyl acetate/heptane solvent mixture was used here as an example.
To prepare the solutions, 770 mg of the respective tri-O-acylglycerol and optionally 150 mg BHT were dissolved in 14 g ethyl acetate (15.6 mL). Then, 57.4 g of n-heptane (84.4 mL) was added. Subsequently, homogenization and filtration were performed. The total volume of the solvent mixture is 100 mL.
To a precisely weighed amount of dry microcrystals of the previously prepared limus active agent, a defined amount of the solutions containing tri-O-acylglycerol and optionally antioxidant is carefully added. It was investigated whether the microcrystals of the limus active agent are not soluble in the solutions and whether suspensions are formed.
To check whether crystal suspension can be prepared, to each 200 mg of rapamycin in the form of microcrystals or 200 mg of everolimus in the form of microcrystals were carefully added 10 mL of one of the solutions 1a) to 1t) at room temperature. Three mixtures of 10 mL of solution for each solution were prepared. After combining, it was tested whether the microcrystals of limus active agents dissolved directly in the solutions. For solutions where there was no immediate dissolution of the microcrystals of the limus active agents, the suspensions of the solutions without antioxidant were allowed to stand for a period of 100 h and tested again to see if the microcrystals of the limus active agents dissolved.
Three mixtures of 10 mL of solution for each solution were prepared. After combining, it was tested whether the microcrystals of limus active agents dissolved directly in these solutions. For solutions where there was no immediate dissolution of the microcrystals of the limus active agents, the suspensions of the solutions without antioxidant were allowed to stand for a period of 100 hours and tested again to see if the microcrystals of the limus active agents dissolved.

[4] = crystal suspensions of microcrystalline everolimus in different solvent mixtures (Example 6); assay type: physicochemical; design: key: +++: good; +/−: average; −−−: poor; settings: 770 mg trioctanoylglycerol per 100 mL
Method: To prepare the solutions, 770 mg of trioctanoylglycerol was dissolved in the polar solvent. Then the nonpolar solvent was added. It was then homogenized and filtered.
To test whether crystal suspensions could be prepared, 10 mL of each of the solutions was carefully added to 200 mg of everolimus in the form of microcrystals at room temperature. After combining, it was tested whether stable crystal suspensions were obtained.

[5] = non-solvents, rounded values (Table 2)
[6] = polar organic solvents (Table 7)
[7] = polar organic solvents, rounded values (Table 6)
[8] = nonpolar organic solvents, rounded values (Table 4)
[9] = nonpolar organic solvents (Table 8)

Compound: CCC(C)C(C)C (stereo not shown) [2,3-Dimethylpentane]
logKOW [1, 5]: 3.8

Compound: C1CCCCCCCCC1 [Cyclodecane]
logKOW [1, 5]: 5.5

Compound: CCCCCCCCCCC(=O)OCC(COC(=O)CCCCCCCCCC)OC(=O)CCCCCCCCCC [Triundecanoylglycerol, 1,3-bis(undecanoyloxy)propan-2-yl-undecanoate]
solubility in water [2]: practically insoluble in water
stability of the crystal suspension of microcrystalline everolimus and rapamycin with the tri-O-acylglycerol [3]: remained stable after 24-48 hours and under temperature elevation

Compound: CCC(=O)O [Propionic acid]
logKOW [1, 6]: 0.32

Compound: CCCC(C)=O [Solution 2-Pentanone, 2-Pentanone]
logKOW [1, 6]: 0.84
logKOW [1, 7]: +0.9

Compound: CCCC(C)(C)C [2,2-Dimethylpentane]
logKOW [1, 5]: 3.8

Compound: FC(F)(F)C(F)(F)C(F)(F)C(F)(F)C(F)(F)C(F)(F)F [Tetradecafluorohexane]
logKOW [1, 8]: 5.8

Compound: CC(C)CC(C)(C)C [2,2,4-Trimethylpentane]
logKOW [1, 5]: 4.1

Compound: CCCCC(C)C [2-Methylhexane]
logKOW [1, 5]: 3.7

Compound: CCC(C)(C)C [2,2-Dimethylbutane]
logKOW [1, 5]: 3.8

Compound: C1CCOC1 [Tetrahydrofuran (THF), Tetrahydrofuran]
logKOW [1, 6]: 0.46
logKOW [1, 7]: +0.5

Compound: C1CCCCCCCC1 [Cyclononan]
logKOW [1, 5]: 5.1

Compound: CCOc1ccccc1 [Ethoxybenzene]
logKOW [1, 8]: 2.5

Compound: Clc1ccccc1Cl [o-Dichlorobenzene]
logKOW [1, 8]: 3.4

Compound: CCCCCCCCCC [Decan]
logKOW [1, 5]: 6.3
logKOW [1, 9]: 6.25

Crystal suspension ([4]; Acetone/Cyclohexane 10:90 (v/v)): +++
Crystal suspension ([4]; Acetone/Cyclohexane 30:70 (v/v)): +/−
Crystal suspension ([4]; Acetone/Cyclohexane 40:60 (v/v)): +/−
Crystal suspension ([4]; Acetone/Cyclohexane 50:50 (v/v)): −−−
Crystal suspension ([4]; Acetone/Cyclohexane 60:40 (v/v)): −−−
Crystal suspension ([4]; Acetone/Heptane 10:90 (v/v)): +++
Crystal suspension ([4]; Acetone/Heptane 30:70 (v/v)): +/−
Crystal suspension ([4]; Acetone/Heptane 40:60 (v/v)): +/−
Crystal suspension ([4]; Acetone/Heptane 50:50 (v/v)): −−−
Crystal suspension ([4]; Acetone/Heptane 60:40 (v/v)): −−−
Crystal suspension ([4]; Acetone/Hexane 10:90 (v/v)): +++
Crystal suspension ([4]; Acetone/Hexane 30:70 (v/v)): +/−
Crystal suspension ([4]; Acetone/Hexane 40:60 (v/v)): +/−
Crystal suspension ([4]; Acetone/Hexane 50:50 (v/v)): −−−
Crystal suspension ([4]; Acetone/Hexane 60:40 (v/v)): −−−
Crystal suspension ([4]; Ethanol/Cyclohexane 10:90 (v/v)): +++
Crystal suspension ([4]; Ethanol/Cyclohexane 40:60 (v/v)): +/−
Crystal suspension ([4]; Ethanol/Cyclohexane 50:50 (v/v)): −−−
Crystal suspension ([4]; Ethanol/Cyclohexane 60:40 (v/v)): −−−
Crystal suspension ([4]; Ethanol/Heptane 10:90 (v/v)): +++
Crystal suspension ([4]; Ethanol/Heptane 40:60 (v/v)): +/−
Crystal suspension ([4]; Ethanol/Heptane 50:50 (v/v)): −−−
Crystal suspension ([4]; Ethanol/Heptane 60:40 (v/v)): −−−
Crystal suspension ([4]; Ethanol/Hexane 10:90 (v/v)): +++
Crystal suspension ([4]; Ethanol/Hexane 40:60 (v/v)): +/−
Crystal suspension ([4]; Ethanol/Hexane 50:50 (v/v)): −−−
Crystal suspension ([4]; Ethanol/Hexane 60:40 (v/v)): −−−
Crystal suspension ([4]; Ethyl acetate/Cyclohexane 10:90 (v/v)): +++
Crystal suspension ([4]; Ethyl acetate/Cyclohexane 30:70 (v/v)): +++
Crystal suspension ([4]; Ethyl acetate/Cyclohexane 40:60 (v/v)): +++
Crystal suspension ([4]; Ethyl acetate/Cyclohexane 50:50 (v/v)): +/−
Crystal suspension ([4]; Ethyl acetate/Cyclohexane 60:40 (v/v)): +/−
Crystal suspension ([4]; Ethyl acetate/Heptane 10:90 (v/v)): +++
Crystal suspension ([4]; Ethyl acetate/Heptane 30:70 (v/v)): +++
Crystal suspension ([4]; Ethyl acetate/Heptane 40:60 (v/v)): +++
Crystal suspension ([4]; Ethyl acetate/Heptane 50:50 (v/v)): +/−
Crystal suspension ([4]; Ethyl acetate/Heptane 60:40 (v/v)): +/−
Crystal suspension ([4]; Ethyl acetate/Hexane 10:90 (v/v)): +++
Crystal suspension ([4]; Ethyl acetate/Hexane 30:70 (v/v)): +++
Crystal suspension ([4]; Ethyl acetate/Hexane 40:60 (v/v)): +++
Crystal suspension ([4]; Ethyl acetate/Hexane 50:50 (v/v)): +/−
Crystal suspension ([4]; Ethyl acetate/Hexane 60:40 (v/v)): +/−
Crystal suspension ([4]; iso-propanol/Cyclohexane 10:90 (v/v)): +++
Crystal suspension ([4]; iso-propanol/Cyclohexane 30:70 (v/v)): +/−
Crystal suspension ([4]; iso-propanol/Cyclohexane 40:60 (v/v)): +/−
Crystal suspension ([4]; iso-propanol/Cyclohexane 50:50 (v/v)): −−−
Crystal suspension ([4]; iso-propanol/Cyclohexane 60:40 (v/v)): −−−
Crystal suspension ([4]; iso-propanol/Heptane 10:90 (v/v)): +++
Crystal suspension ([4]; iso-propanol/Heptane 30:70 (v/v)): +/−
Crystal suspension ([4]; iso-propanol/Heptane 40:60 (v/v)): +/−
Crystal suspension ([4]; iso-propanol/Heptane 50:50 (v/v)): −−−
Crystal suspension ([4]; iso-propanol/Heptane 60:40 (v/v)): −−−
Crystal suspension ([4]; iso-propanol/Hexane 10:90 (v/v)): +++
Crystal suspension ([4]; iso-propanol/Hexane 30:70 (v/v)): +/−
Crystal suspension ([4]; iso-propanol/Hexane 40:60 (v/v)): +/−
Crystal suspension ([4]; iso-propanol/Hexane 50:50 (v/v)): −−−
Crystal suspension ([4]; iso-propanol/Hexane 60:40 (v/v)): −−−
Compound: CO[C@H]1C[C@@H]2CC[C@@H](C)[C@@](O)(O2)C(=O)C(=O)N2CCCC[C@H]2C(=O)O[C@H]([C@H](C)C[C@@H]2CC[C@@H](OCCO)[C@H](OC)C2)CC(=O)[C@H](C)/C=C(\C)[C@@H](O)[C@@H](OC)C(=O)[C@H](C)C[C@H](C)/C=C/C=C/C=C/1C [Everolimus, 40-O-(2-hydroxyethyl)rapamycin]

Compound: CCCCCCCC(=O)OCC(COC(=O)CCCCCCC)OC(=O)CCCCCCC [Trioctanoylglycerol, trioctanoylglycerol]
solubility in water [2]: practically insoluble in water
stability of the crystal suspension of microcrystalline everolimus and rapamycin with the tri-O-acylglycerol [3]: remained stable even after 100 h and under temperature elevation

Compound: CCC(C)c1ccccc1 (stereo not shown) [2-Phenylbutane]
logKOW [1, 8]: 3.4

Compound: CC(C)c1ccccc1 [Cumol]
logKOW [1, 8]: 3.4

Compound: CCCCCCC [Heptane]
logKOW [1, 5]: 4.5
logKOW [1, 9]: 4.50

Compound: CCCOC(C)=O [n-Propyl acetate]
logKOW [1, 7]: +1.4

Compound: CC(C)(C)C1CCCCC1 [tert-butylcyclohexane]
logKOW [1, 5]: 4.0

Compound: CCCOCCC [Dipropyl ether]
logKOW [1, 7]: +2.0

Compound: COc1ccccc1 [Anisol]
logKOW [1, 8]: 2.1

Compound: OCC(O)CO [Glycerin]
logKOW [1, 7]: −1.8

Compound: C1COCCO1 [1,4-Dioxane]
log KOW [1]: about −0.4

Compound: C1CCCCCC1 [Cycloheptane]
logKOW [1, 5]: 4

Compound: CCc1ccccc1 [Ethylbenzene]
logKOW [1, 8]: 3.2

Compound: CCC(C)C [Isopentane]
logKOW [1, 5]: 3.2

Compound: O [Water]
logKOW ([1]; polar organic solvents, rounded orientation values (Table 5)): approx. −1.4

Compound: CC(C)Cc1ccccc1 [2-Methyl-1-phenylpropane]
logKOW [1, 8]: 3.4

Compound: CC(C)Cc1ccccc1 [iso-butylbenzene]
logKOW [1, 8]: 4.1

Compound: C1CCCC1 [Cyclopentane]
logKOW [1, 5]: 3.0
logKOW [1, 9]: 3.00

Compound: CCCCCCCCCC(=O)OCC(COC(=O)CCCCCCCCC)OC(=O)CCCCCCCCC [Tridecanoylglycerol, tridecanoylglycerol]
stability of the crystal suspension of microcrystalline everolimus and rapamycin with the tri-O-acylglycerol [3]: remained stable even after 100 h and under temperature elevation

Compound: CCCC(C)C [2-Methylpentane]
logKOW [1, 5]: 3.6

Compound: CCOC(C)=O [Ethyl acetate]
logKOW [1, 6]: 0.73
logKOW [1, 7]: +0.7

Compound: CCCCCCCC [Octane]
logKOW [1, 5]: 5.2
logKOW [1, 9]: 5.15

Compound: CCCCCCCCC [Nonan]
logKOW [1, 5]: 5.7
logKOW [1, 9]: 5.65

Compound: COC(C)=O [Methyl acetate]
logKOW [1, 7]: +0.2

Compound: CN1CCCC1=O [N-methylpyrrolidone]
logKOW [1, 7]: −0.5

Compound: CC1CCCC1 [Methylcyclopentane]
logKOW [1, 5]: 3.4

Compound: Clc1ccccc1 [Chlorobenzene]
log KOW [1]: about 2.9
logKOW [1, 8]: 2.9
